Results taken from US12247032B2, “Substituted pyrazolo[1,5-a]pyrimidines as inhibitors of JAK kinases” (Genentech, Inc., priority 2019, dated 2025).

These compounds were tested against T1, Recombinant human JAK2 kinase domain protein (Residues 812-1132) (Homo sapiens, UniProt O60674) (assay: JAK2 biochemical assay (microfluidic mobility shift, peptide phosphorylation)). Details: 25 μM ATP, 0.2 nM total JAK2; Ki calculated from Ki app (tight-binding, competitive); read-out: Biochem JAK2 Ki.
T1 construct: human JAK2 kinase domain protein (Residues 812-1132); made in house; host or cells: insect cells
Method in brief: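 Insect-cell-expressed human JAK1 (1 nM, residues 854-1154) or JAK2 (0.2 nM, residues 812-1132) phosphorylating 1.5 μM 5-FAM peptide Y-1B with 25 μM ATP, pH 7.2 HEPES, 30 min at 22-23 °C; twelve concentrations up to 1000 nM in duplicate. Mobility-shift % conversion fitted to tight-binding quadratic for Ki^app.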

T1 sequence (O60674 812-1132): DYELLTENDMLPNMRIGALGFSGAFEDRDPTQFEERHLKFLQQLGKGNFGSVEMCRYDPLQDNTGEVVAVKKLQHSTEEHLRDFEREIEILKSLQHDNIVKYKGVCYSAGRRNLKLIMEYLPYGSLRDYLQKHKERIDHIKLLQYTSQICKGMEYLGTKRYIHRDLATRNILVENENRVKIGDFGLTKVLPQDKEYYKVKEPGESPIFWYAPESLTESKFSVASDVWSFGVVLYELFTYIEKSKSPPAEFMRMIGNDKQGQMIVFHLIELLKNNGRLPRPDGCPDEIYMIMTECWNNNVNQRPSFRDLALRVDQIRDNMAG

Row | Ki [nM] | Structure (SMILES)
1 | 0.38 | O=C(Nc1cn(Cc2nnn(C3CCNC3)n2)nc1-c1cc(OC(F)F)ccc1OC(F)F)c1cnn2cccnc12 (single isomer, unassigned) [Example 27, N-[3-[2,5-bis(difluoromethoxy)phenyl]-1-[(2-pyrrolidin-3-yltetrazol-5-yl)methyl]pyrazol-4-yl]pyrazolo[1,5-a]pyrimidine-3-carboxamide]
2 | 0.36 | O=C(Nc1cn(Cc2nnn(C3CCNC3)n2)nc1-c1cc(OC(F)F)ccc1OC(F)F)c1cnn2cccnc12 (single isomer, unassigned) [Example 28, N-[3-[2,5-bis(difluoromethoxy)phenyl]-1-[(2-pyrrolidin-3-yltetrazol-5-yl)methyl]pyrazol-4-yl]pyrazolo[1,5-a]pyrimidine-3-carboxamide]
3 | 0.48 | CN1CCC(N2CC(n3nnc(Cn4cc(NC(=O)c5cnn6cccnc56)c(-c5cc(OC(F)F)ccc5OC(F)F)n4)n3)C2)C1 (single isomer, unassigned) [Example 72, N-[3-[2,5-bis(difluoromethoxy)phenyl]-1-[[2-[1-(1-methylpyrrolidin-3-yl)azetidin-3-yl]tetrazol-5-yl]methyl]pyrazol-4-yl]pyrazolo[1,5-a]pyrimidine-3-carboxamide]
4 | 0.17 | CN1CC(n2nnc(Cn3cc(NC(=O)c4cnn5cccnc45)c(-c4cc(Cl)ccc4OC(F)F)n3)n2)C1 [Example 7, N-[3-[5-chloro-2-(difluoromethoxy)phenyl]-1-[[2-(1-methylazetidin-3-yl)tetrazol-5-yl]methyl]pyrazol-4-yl]pyrazolo[1,5-a]pyrimidine-3-carboxamide]
5 | 0.28 | O=C(Nc1cn(Cc2nnn(C3CNC3)n2)nc1-c1cc(Cl)ccc1OC(F)F)c1cnn2cccnc12 [Example 8, N-[1-[[2-(azetidin-3-yl)tetrazol-5-yl]methyl]-3-[5-chloro-2-(difluoromethoxy)phenyl]pyrazol-4-yl]pyrazolo[1,5-a]pyrimidine-3-carboxamide]
6 | 0.24 | CN1CC(n2nnc(Cn3cc(NC(=O)c4cnn5cccnc45)c(-c4cc(OC(F)F)ccc4OC(F)F)n3)n2)C1 [Example 10, N-[3-[2,5-bis(difluoromethoxy)phenyl]-1-[[2-(1-methylazetidin-3-yl)tetrazol-5-yl]methyl]pyrazol-4-yl]pyrazolo[1,5-a]pyrimidine-3-carboxamide]
7 | 0.27 | O=C(Nc1cn(Cc2nnn(C3CNC3)n2)nc1-c1cc(OC(F)F)ccc1OC(F)F)c1cnn2cccnc12 [Example 11, N-[1-[[2-(azetidin-3-yl)tetrazol-5-yl]methyl]-3-[2,5-bis(difluoromethoxy)phenyl]pyrazol-4-yl]pyrazolo[1,5-a]pyrimidine-3-carboxamide]
8 | 0.18 | O=C(Nc1cn(Cc2nnnn2C2CNC2)nc1-c1cc(OC(F)F)ccc1OC(F)F)c1cnn2cccnc12 [Example 12, N-[1-[[1-(azetidin-3-yl)tetrazol-5-yl]methyl]-3-[2,5-bis(difluoromethoxy)phenyl]pyrazol-4-yl]pyrazolo[1,5-a]pyrimidine-3-carboxamide]
9 | 0.16 | NCCn1nnc(Cn2cc(NC(=O)c3cnn4cccnc34)c(-c3cc(OC(F)F)ccc3OC(F)F)n2)n1 [Example 13, N-[1-[[2-(2-aminoethyl)tetrazol-5-yl]methyl]-3-[2,5-bis(difluoromethoxy)phenyl]pyrazol-4-yl]pyrazolo[1,5-a]pyrimidine-3-carboxamide]
10 | 0.12 | NCCn1nnnc1Cn1cc(NC(=O)c2cnn3cccnc23)c(-c2cc(OC(F)F)ccc2OC(F)F)n1 [Example 14, N-[1-[[1-(2-aminoethyl)tetrazol-5-yl]methyl]-3-[2,5-bis(difluoromethoxy)phenyl]pyrazol-4-yl]pyrazolo[1,5-a]pyrimidine-3-carboxamide]
11 | 0.092 | CN1CC(n2nnnc2Cn2cc(NC(=O)c3cnn4cccnc34)c(-c3cc(Cl)ccc3OC(F)F)n2)C1 [Example 15, N-[3-[5-chloro-2-(difluoromethoxy)phenyl]-1-[[1-(1-methylazetidin-3-yl)tetrazol-5-yl]methyl]pyrazol-4-yl]pyrazolo[1,5-a]pyrimidine-3-carboxamide]
12 | 0.27 | CN(C)CCn1nnc(Cn2cc(NC(=O)c3cnn4cccnc34)c(-c3cc(OC(F)F)ccc3OC(F)F)n2)n1 [Example 16, N-[3-[2,5-bis(difluoromethoxy)phenyl]-1-[[2-[2-(dimethylamino)ethyl]tetrazol-5-yl]methyl]pyrazol-4-yl]pyrazolo[1,5-a]pyrimidine-3-carboxamide]
13 | 0.23 | CN(C)CCn1nnnc1Cn1cc(NC(=O)c2cnn3cccnc23)c(-c2cc(OC(F)F)ccc2OC(F)F)n1 [Example 17, N-[3-[2,5-bis(difluoromethoxy)phenyl]-1-[[1-[2-(dimethylamino)ethyl]tetrazol-5-yl]methyl]pyrazol-4-yl]pyrazolo[1,5-a]pyrimidine-3-carboxamide]
14 | 0.43 | O=C(Nc1cn(Cc2nnn(C3CCNCC3)n2)nc1-c1cc(OC(F)F)ccc1OC(F)F)c1cnn2cccnc12 [Example 18, N-[3-[2,5-bis(difluoromethoxy)phenyl]-1-[[2-(4-piperidyl)tetrazol-5-yl]methyl]pyrazol-4-yl]pyrazolo[1,5-a]pyrimidine-3-carboxamide]
15 | 0.15 | CNCCn1nnnc1Cn1cc(NC(=O)c2cnn3cccnc23)c(-c2cc(OC(F)F)ccc2OC(F)F)n1 [Example 19, N-[3-[2,5-bis(difluoromethoxy)phenyl]-1-[[1-[2-(methylamino)ethyl]tetrazol-5-yl]methyl]pyrazol-4-yl]pyrazolo[1,5-a]pyrimidine-3-carboxamide]
16 | 0.46 | CNCCn1nnc(Cn2cc(NC(=O)c3cnn4cccnc34)c(-c3cc(OC(F)F)ccc3OC(F)F)n2)n1 [Example 20, N-[3-[2,5-bis(difluoromethoxy)phenyl]-1-[[2-[2-(methylamino)ethyl]tetrazol-5-yl]methyl]pyrazol-4-yl]pyrazolo[1,5-a]pyrimidine-3-carboxamide]
17 | 0.39 | CN(C)CCN1CC(n2nnc(Cn3cc(NC(=O)c4cnn5cccnc45)c(-c4cc(OC(F)F)ccc4OC(F)F)n3)n2)C1 [Example 21, N-[3-[2,5-bis(difluoromethoxy)phenyl]-1-[[2-[1-[2-(dimethylamino)ethyl]azetidin-3-yl]tetrazol-5-yl]methyl]pyrazol-4-yl]pyrazolo[1,5-a]pyrimidine-3-carboxamide]
18 | 0.3 | CN1CCC(n2nnc(Cn3cc(NC(=O)c4cnn5cccnc45)c(-c4cc(OC(F)F)ccc4OC(F)F)n3)n2)CC1 [Example 22]
19 | 0.24 | CN1CC(n2nnc(Cn3cc(NC(=O)c4cnn5cccnc45)c(-c4cc(C5CC5)ccc4OC(F)F)n3)n2)C1 [Example 23, N-[3-[5-cyclopropyl-2-(difluoromethoxy)phenyl]-1-[[2-(1-methylazetidin-3-yl)tetrazol-5-yl]methyl]pyrazol-4-yl]pyrazolo[1,5-a]pyrimidine-3-carboxamide]
20 | 0.39 | CN1CCC(n2nnnc2Cn2cc(NC(=O)c3cnn4cccnc34)c(-c3cc(OC(F)F)ccc3OC(F)F)n2)C1 (centres unmarked) [Example 26, N-[3-[2,5-bis(difluoromethoxy)phenyl]-1-[[1-(1-methylpyrrolidin-3-yl)tetrazol-5-yl]methyl]pyrazol-4-yl]pyrazolo[1,5-a]pyrimidine-3-carboxamide]
21 | 0.25 | CN(CCN1CC(n2nnc(Cn3cc(NC(=O)c4cnn5cccnc45)c(-c4cc(OC(F)F)ccc4OC(F)F)n3)n2)C1)C(=O)OC(C)(C)C [Example 31, tert-butyl N-[2-[3-[5-[[3-[2,5-bis(difluoromethoxy)phenyl]-4-(pyrazolo[1,5-a]pyrimidine-3-carbonylamino)pyrazol-1-yl]methyl]tetrazol-2-yl]azetidin-1-yl]ethyl]-N-methyl-carbamate]
22 | 0.36 | CN(C)CCN1CC(n2nnc(Cn3cc(NC(=O)c4cnn5cccnc45)c(-c4cc(Cl)ccc4OC(F)F)n3)n2)C1 [Example 37, N-[3-[5-chloro-2-(difluoromethoxy)phenyl]-1-[[2-[1-[2-(dimethylamino)ethyl]azetidin-3-yl]tetrazol-5-yl]methyl]pyrazol-4-yl]pyrazolo[1,5-a]pyrimidine-3-carboxamide]
23 | 0.44 | CN1CCC(N2CC(n3nnc(Cn4cc(NC(=O)c5cnn6cccnc56)c(-c5cc(OC(F)F)ccc5OC(F)F)n4)n3)C2)CC1 [Example 38, N-[3-[2,5-bis(difluoromethoxy)phenyl]-1-[[2-[1-(1-methyl-4-piperidyl)azetidin-3-yl]tetrazol-5-yl]methyl]pyrazol-4-yl]pyrazolo[1,5-a]pyrimidine-3-carboxamide]
24 | 0.38 | CSc1ccc(OC(F)F)c(-c2nn(Cc3nnn(C4CN(CCCN(C)C)C4)n3)cc2NC(=O)c2cnn3cccnc23)c1 [Example 58, N-[3-[2-(difluoromethoxy)-5-methylsulfanyl-phenyl]-1-[[2-[1-[3-(dimethylamino)propyl]azetidin-3-yl]tetrazol-5-yl]methyl]pyrazol-4-yl]pyrazolo[1,5-a]pyrimidine-3-carboxamide]
25 | 0.52 | CN(C)CCN1CCC(n2nnc(Cn3cc(NC(=O)c4cnn5cccnc45)c(-c4cc(OC(F)F)ccc4OC(F)F)n3)n2)CC1 [Example 61, N-[3-[2,5-bis(difluoromethoxy)phenyl]-1-[[2-[1-[2-(dimethylamino)ethyl]-4-piperidyl]tetrazol-5-yl]methyl]pyrazol-4-yl]pyrazolo[1,5-a]pyrimidine-3-carboxamide]
26 | 0.54 | CN(C)[C@H]1C[C@H](N2CC(n3nnc(Cn4cc(NC(=O)c5cnn6cccnc56)c(-c5cc(OC(F)F)ccc5OC(F)F)n4)n3)C2)C1 [Example 70, N-[3-[2,5-bis(difluoromethoxy)phenyl]-1-[[2-[1-[3-(dimethylamino)cyclobutyl]azetidin-3-yl]tetrazol-5-yl]methyl]pyrazol-4-yl]pyrazolo[1,5-a]pyrimidine-3-carboxamide]
